Patent US20240207213A1, “METHODS AND COMPOSITIONS FOR TREATING DISORDERS WITH ORAL SYSTEMICALLY BIOAVAILABLE BUTYRATE CONJUGATES” (THE UNIVERSITY OF CHICAGO, priority 2021, published 2024)
Entries after “also recorded” stand apart in the source; their conditions may differ. Like-named read-outs stand apart in the source and are kept apart here.

Columns and labels:
[1] = Biodistribution of butyrate after oral gavage (LC-MS/MS quantification in plasma and organs); assay type: in vivo, C57BL/6J mice; settings: for butyrate level in the liver / butyrate level in the mesenteric LNs: 3 hr and 6 hr post oral administration; for butyrate level in the spleen: 3 hr post oral administration
Method: The specific-pathogen-free (SPF) female C57BL/6J mice were orally administered with 50.4 mg NaBut, 80 mg SerBut, 85.6 mg ThrBut (all containing equivalent 40 mg butyrate), or PBS. At 0.5 hr or 3 hr post administration, blood was collected by cheek bleeding. At 3 hr or 6 hr post administration, the mice were anesthetized under isoflurane and transcardially perfused with at least 30 ml phosphate-buffered saline (PBS) containing 1 mM EDTA. Organs including liver, mesenteric lymph nodes (mLNs), brain, spinal cord, and spleen were collected and frozen in dry ice immediately, and then transfer to −80° C. until further processing.
1:1 v/v acetonitrile (ACN) to water was used to extract butyrate from the plasma or organs. Plasma was mixed 1:1 with ACN/water solution, and then centrifuged to remove the denatured proteins. Organs were weighed and transferred to Lysing Matrix D tubes, and added with ACN/water 1:1 v/v solution followed by sample lysing using FastPrep-24 5G homogenizer (MP Biomedicals). The samples were then centrifuged, and the supernatant were collected for the measuring of butyrate.
Samples were prepared and derivatized as describe in the literature (5, 6). 3-nitrophenylhydrazine (NPH) stock solution was prepared at 0.02 M in water:acetonitrile 1:1 v/v. EDC stock solution (with 1% pyridine added) was prepared at 0.25 M in water:acetonitrile 1:1 v/v. 4-methylvaleric acid was added as internal standard. Samples were mixed with NPH stock and EDC stock at 1:1:1 ratio by volume. The mixture was heated by heating block at 60° C. for 30 min. Samples were then filtered through […] and transferred into HPLC vials and stored at 4° C. before analysis.
The Agilent 6460 Triple Quad MS-MS was used to detect the derivatized butyrate.
Both derivatized butyrate-NPH and 4-methylvaleric-NPH were detected in negative mode. Column: ThermoScientific C18 4.6×50 mm, […], at room temperature. Mobile phase A: water with 0.1% v/v formic acid. Mobile phase B: acetonitrile with 0.1% v/v formic acid. Injection volume: 5.0 μL. Flow rate: 0.5 mL/min. Gradient of solvent: 15% mobile phase B at 0.0 min; 100% mobile phase B at 3.5 min; 100% mobile phase B at 6.0 min; 15% mobile phase B at 6.5 min. The MS conditions were optimized on pure butyrate-NPH or 4-methylvaleric-NPH at 1 mM. The fragment voltage was 135 V and collision energy was set to 18 V. Multiple reaction monitoring (MRM) of 222→137 was assigned to butyrate, and MRM of 250→137 was assigned to 4-methylvaleric acid as internal standard. The ratio between MRM of butyrate and 4-methylvaleric acid was used to quantify the concentration of butyrate. The final butyrate content is each organ is normalized by the organ weight.

[2] = Water solubility (statement); assay type: physicochemical
[3] = test system: experimental autoimmune encephalomyelitis (EAE); assay type: in vivo, C57BL/6 mice; settings: for Th17 cells (RORγt+% of CD4+ T cells) in the spinal cord: day 20, compared to the PBS group
Excerpt: C57BL/6 female mice (8 weeks old) were purchased from Charles River Laboratories and housed in the animal facility at the University of Chicago for 2 weeks before immunization. All experiments were approved by the Institutional Animal Care and Use Committee of the University of Chicago
Female C57BL/6 mice at the age of week 10 were subcutaneously immunized at the dorsal flanks with an emulsion of MOG35-55 in complete Freund's adjuvant (MOG35-55/CFA Emulsion, Hooke Laboratories) on day 0, followed by i.p. administration of pertussis toxin in PBS on both day 0 and day 1. The mice were treated with PBS or serine butyrate (0.6 mg/g per dose) twice daily from day 2 to day 19. Another group of mice were treated with PBS once (in the morning) and serine butyrate (0.6 mg/g) once (in the afternoon) daily. The development of EAE was monitored and clinical scores were measured daily from day 7 to day 20. The clinical scores were determined based on the Hooke Laboratories scoring criteria (found online at hookelabs.com/services/cro/eae/MouseEAEscoring.html). In brief, EAE clinical scores ranged from a score of 0, corresponding to no obvious changes in motor function compared to non-immunized mice, to a score of 4, corresponding to limp tail and minimal or no movement of hind and/or fore limbs. On day 20, mice from the twice daily PBS or serine butyrate gavage groups were sacrificed. Their blood was collected through cardiac puncture, and spleen, spinal cord, mesenteric lymph nodes (LNs), central nervous system(CNS)-draining LNs (dLNs, including cervical LNs and iliac LNs) were harvested for the immunostaining followed by the flow cytometry analysis. The major cytokines from the plasma and spinal cord after homogenization were analyzed by the LegendPlex (BioLegend).

[4] = 0.5 hr and 3 hr after oral administration (both time points)
[5] = day 20, flow cytometry, twice daily vs PBS
[6] = day 20, flow cytometry, twice daily vs PBS, listed as Serine butyrate
[7] = day 20, flow cytometry, twice daily vs PBS, listed as serine butyrate
[8] = oral, compared to mice treated with NaBut and ThrBut (PBS and sodium butyrate)

In the case of `CCCC(=O)OC(C)[C@H](N)C(=O)O` (stereo in doubt) [ThrBut, O-butyryl L-threonine], the “butyrate level in the plasma” value [1, 4] is reported as “did not show high level of butyrate”, the “butyrate level in the liver” value [1] is reported as “high level of butyrate” and the “butyrate level in the mesenteric LNs” value [1] is reported as “high level of butyrate; also recorded: higher accumulation”. For the same compound, the “butyrate level in the spleen” value [1] was “higher level of butyrate; also recorded: higher accumulation” and the water solubility [2] was “water soluble”.
In the case of `CCCC(=O)[O-].[Na+]` [NaBut, sodium butyrate, reference compound], the “butyrate level in the plasma” value [1, 4] is reported as “did not show high level of butyrate”.
In the case of `CCCC(=O)OC[C@H](N)C(=O)O` [SerBut, O-butyryl L-serine], the “severity of EAE disease development (clinical score)” value ([3]; 0.6 mg/g per dose oral, twice daily day 2-19, vs PBS, listed as Serine butyrate) is reported as “attenuates”, the “dose regimen comparison in EAE: twice daily vs single daily dose” value ([3]; 0.6 mg/g twice daily vs once daily) is reported as “performed better than a single dose” and the body weight loss ([3]; EAE mice treated orally) is reported as “did not observe a significant body weight loss”. The “MHCII expression (gMFI) on dendritic cells and macrophages in the mesenteric LNs” value ([3]; day 20, compared to PBS-treated mice) was “significantly lower”, the “Th17 cells (RORγt+% of CD4+ T cells) in the spinal cord” value ([3]; listed as Serine butyrate) was “reduced” and the “Th17 cells (RORγt+% of CD4+ T cells) in the spinal cord” value ([3]; listed as serine butyrate) was “less Th17 cells”. For the same compound, the “CD80+% and CD86+% of CD11c hi dendritic cells in the spinal cord” value [3, 5] was “significant reduction”, the “cell surface MHCII expression in CD11c hi dendritic cells and CD11b+CD11c- monocytes, spinal cord” value [3, 5] was “similarly marked reduction” and the “MHCII positive dendritic cells and macrophages in the mesenteric LNs” value [3, 6] was “suppresses”. For the same compound, the “immune cell infiltration into the spinal cord (CD11b+, CD11b+CD11c-, F4/80+CD11b+ cells)” value [3, 6] was “inhibits”, the “MHCII positive dendritic cells and macrophages in the mesenteric LNs” value [3, 7] was “significant reduction” and the “immune cell infiltration into the spinal cord (CD11b+, CD11b+CD11c-, F4/80+CD11b+ cells)” value [3, 7] was “significantly suppressed”. For the same compound, the “IFNγ in the spinal cord” value ([3]; day 20, homogenate supernatant normalized by total protein) was “minimal IFNγ”, the “Foxp3+CD8+ Tregs in the mesenteric LNs” value ([3]; day 20, twice daily vs PBS) was “significant induction” and the “regulatory T cells in the spleen (Foxp3+ or Foxp3+CD25+ of CD4+ T cells)” value ([3]; day 20, twice daily vs PBS) was “significantly increased”. The “EAE clinical score of the majority of mice” value ([3]; twice daily 0.6 mg/g, score scale 0-4) was “below 1.0”, the “butyrate level in the plasma” value ([1]; 0.5 hr after oral administration, equivalent 40 mg butyrate) was “dramatically increased” and the “butyrate level in the plasma” value ([1]; 3 hr after oral administration, equivalent 40 mg butyrate) was “dropped significantly”. For the same compound, the “butyrate level in the liver” value [1] was “high level of butyrate”, the “butyrate level in the mesenteric LNs” value [1] was “high level of butyrate; also recorded: higher accumulation” and the “butyrate level in the spleen” value [1] was “higher level of butyrate; also recorded: higher accumulation”. For the same compound, the “butyrate level in brain” value [1, 8] was “significantly enhanced; also recorded: significantly increased”, the “butyrate level in spinal cord” value [1, 8] was “significantly enhanced; also recorded: significantly increased” and the water solubility [2] was “water soluble”.
For `CCCC(=O)Oc1ccc(C[C@H](N)C(=O)O)cc1` [TyrBut, O-butyryl L-tyrosine], the water solubility [2] was “not highly soluble”.
